Laboratory results reported in the supplement of paper PMC11451515.

Legend:
NOMO1 [1] = assay: AUC of viability dose-response curve (% viability x log10 dose units); higher = less sensitive; conditions: 48 h
How it was run: (§1)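 Medium-adapted leukemia cells in 1536-well plates, at 500 or 1000 cells/well, were incubated for 48 h at 37°C with library compounds in DMSO at 11 threefold doses from 47 μM to 0.79 nM. CellTiter-Glo One luminescence normalised per plate to DMSO and cell-free wells was fitted with a four-parameter log-logistic model over log10 doses. Area under the curve was integrated from this fit by trapezoidal rule, with curves beyond full viability scaled and failed quality-control curves removed.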

P12-Ichikawa [2] = assay: as above; conditions: 48 h
How it was run: as §1

SEM cells [3] = assay: as above; conditions: 48 h
How it was run: as §1

NOMO1 [4] = assay: cell viability relative to DMSO control; higher = less cytotoxic; conditions: RPMI 5 mM glucose + 10% FBS, 48 h
How it was run: (§2)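 Cells were incubated for 48 h at 37°C before CellTiter-Glo One luminescence was read. The cells were NOMO1 or SEM (500 cells/well) or P12-Ichikawa (1000 cells/well) leukemia cells, adapted for at least four passages in each medium and seeded in 1536-well plates (5 μl). Dosing used library compounds in DMSO applied by pin over 11 threefold points, 47 μM to 0.79 nM. Viability is the per-plate percentage of DMSO wells, with cell-free wells as background.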

P12-Ichikawa [5] = assay: as above; conditions: RPMI 5 mM glucose + 10% dialyzed FBS, 48 h
How it was run: as §2

SEM cells [6] = assay: as above; conditions: 48 h
How it was run: as §2

COc1ccc(C(=O)N2CCCC2=O)cc1
AUC of viability dose-response curve
Conditions	NOMO1 [1]	P12-Ichikawa [2]	SEM cells [3]
HPLM + 10% dialyzed FBS	447	447	449
RPMI 5 mM glucose + 10% FBS	456	456	422
RPMI 5 mM glucose + 10% dialyzed FBS	467	439	461

CC[C@@H]1[C@@H](C)O[C@@](O)([C@@H](C)[C@H](O)[C@H](C)[C@H]2OC(=O)/C=C/C=C/[C@H](C)[C@@H]([C@@H](C)[C@@H](O)[C@H](C)[C@@]3(O)C[C@@H](O[C@H]4C[C@H](O)[C@H](O)[C@H](C)O4)[C@H](CC)[C@@H](C)O3)OC(=O)/C=C/C=C/[C@@H]2C)C[C@H]1O[C@H]1C[C@H](O)[C@H](O)[C@H](C)O1
Conditions	AUC of viability dose-response curve	cell viability [%]
NOMO1 [1], HPLM + 10% dialyzed FBS	370	–
NOMO1 [1], RPMI 5 mM glucose + 10% FBS	366	–
NOMO1 [1], RPMI 5 mM glucose + 10% dialyzed FBS	372	–
NOMO1 [4], 0.000781 µM	–	111
NOMO1 [4], 0.00234 µM	–	117
NOMO1 [4], 0.00702 µM	–	129
NOMO1 [4], 0.0211 µM	–	121
NOMO1 [4], 0.0632 µM	–	118
NOMO1 [4], 0.19 µM	–	132
NOMO1 [4], 0.569 µM	–	128
NOMO1 [4], 1.71 µM	–	121
NOMO1 [4], 5.12 µM	–	6.11
NOMO1 [4], 15.4 µM	–	17.5
NOMO1 [4], 46.1 µM	–	2.97
P12-Ichikawa [2], HPLM + 10% dialyzed FBS	374	–
P12-Ichikawa [2], RPMI 5 mM glucose + 10% FBS	403	–
P12-Ichikawa [2], RPMI 5 mM glucose + 10% dialyzed FBS	380	–
P12-Ichikawa [5], 0.000781 µM	–	117
P12-Ichikawa [5], 0.00234 µM	–	121
P12-Ichikawa [5], 0.00702 µM	–	115
P12-Ichikawa [5], 0.0211 µM	–	131
P12-Ichikawa [5], 0.0632 µM	–	126
P12-Ichikawa [5], 0.19 µM	–	127
P12-Ichikawa [5], 0.569 µM	–	142
P12-Ichikawa [5], 1.71 µM	–	139
P12-Ichikawa [5], 5.12 µM	–	7.66
P12-Ichikawa [5], 15.4 µM	–	60.8
P12-Ichikawa [5], 46.1 µM	–	2.82
SEM cells [3], HPLM + 10% dialyzed FBS	368	–
SEM cells [3], RPMI 5 mM glucose + 10% FBS	357	–
SEM cells [3], RPMI 5 mM glucose + 10% dialyzed FBS	351	–

cell viability [%], SEM cells [6]
Conditions	HPLM + 10% dialyzed FBS	RPMI 5 mM glucose + 10% FBS	RPMI 5 mM glucose + 10% dialyzed FBS
0.000781 µM	98.9	113	112
0.00234 µM	114	106	121
0.00702 µM	115	125	108
0.0211 µM	104	101	118
0.0632 µM	130	109	113
0.19 µM	113	114	128
0.569 µM	105	101	92.3
1.71 µM	101	88.9	77.1
5.12 µM	6.3	7.21	7.23
15.4 µM	29.3	11.6	19
46.1 µM	5.37	4.01	4.96

CC(=O)c1cnc2ccc(-c3cc(Cl)c(O)c(Cl)c3)nc2c1N[C@H]1CC[C@H](CN(C)C)CC1
SEM cells [6], HPLM + 10% dialyzed FBS
Conditions	cell viability [%]
0.000781 µM	110
0.00234 µM	101
0.00702 µM	105
0.0211 µM	99.2
0.0632 µM	63.5
0.19 µM	25.4
0.569 µM	16.2
1.71 µM	6.2
5.12 µM	6.52
15.4 µM	5.71
46.1 µM	6.59

AUC of viability dose-response curve
Conditions	NOMO1 [1]	P12-Ichikawa [2]	SEM cells [3]
HPLM + 10% dialyzed FBS	211	277	218
RPMI 5 mM glucose + 10% FBS	237	256	213
RPMI 5 mM glucose + 10% dialyzed FBS	237	253	208
